Test results published in patent US10730874B2 (Shire Human Genetic Therapies, Inc., priority 2018, dated 2020).

Each molecule was assayed against human activated kallikrein enzyme (plasma kallikrein) (Homo sapiens (Human), UniProt P03952) (assay: Inhibition of human activated plasma kallikrein, fluorogenic peptide substrate assay, 500 pM enzyme format). Settings: 500 pM activated kallikrein enzyme, 300 uM Pro-Phe-Arg-7-amido-4-methylcoumarin substrate, 30 min preincubation, 10 min at RT; read-out: Primary Dose Response Assay: Average EC50.
Sequence of human activated kallikrein enzyme (plasma kallikrein) (P03952 391-638): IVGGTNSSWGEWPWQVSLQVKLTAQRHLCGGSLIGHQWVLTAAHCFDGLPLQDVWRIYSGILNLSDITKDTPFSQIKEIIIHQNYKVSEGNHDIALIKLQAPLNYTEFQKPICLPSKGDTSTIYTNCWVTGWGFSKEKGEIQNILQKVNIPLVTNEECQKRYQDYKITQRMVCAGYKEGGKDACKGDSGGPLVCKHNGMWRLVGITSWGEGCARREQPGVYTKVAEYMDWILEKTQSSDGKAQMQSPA
Sequence of human activated kallikrein enzyme (plasma kallikrein) (P03952 20-390 partner): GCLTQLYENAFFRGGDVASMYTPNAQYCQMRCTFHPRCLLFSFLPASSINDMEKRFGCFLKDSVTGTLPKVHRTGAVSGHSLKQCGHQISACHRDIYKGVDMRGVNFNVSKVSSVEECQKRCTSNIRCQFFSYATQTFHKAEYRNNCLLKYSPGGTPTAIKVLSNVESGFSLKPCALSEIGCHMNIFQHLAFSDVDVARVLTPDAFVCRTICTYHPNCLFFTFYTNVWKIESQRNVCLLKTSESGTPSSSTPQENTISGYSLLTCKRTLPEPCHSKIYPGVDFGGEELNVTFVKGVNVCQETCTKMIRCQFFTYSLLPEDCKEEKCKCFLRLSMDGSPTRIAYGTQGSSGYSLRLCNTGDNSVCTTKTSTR
Assay type: biochemical
Method in brief: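 Buffer 20 mM Tris pH 7.5, EDTA, NaCl, PEG-400, Triton X-100; 300 uM Pro-Phe-Arg-AMC; enzyme–inhibitor preincubation 30 min RT. Format one: 500 pM kallikrein, 10 min RT reaction; format two: 5 pM kallikrein, 18 h RT reaction. Fluorescence read at 460 nm (380 nm excitation).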

Row | SMILES | EC50
1 | N#CNC(=NCc1ncn2ccc(Cl)cc12)c1cnn(Cc2cn3cc(C4CC4)ccc3n2)c1 [Example I-123, N′-((7-chloroimidazo[1,5-a]pyridin-1-yl)methyl)-N-cyano-1-((6-cyclopropylimidazo[1,2-a]pyridin-2-yl)methyl)-1H-pyrazole-4-carboximidamide] | 1 to 10 nM
2 | COCCc1cc(C2CC2)cn2cc(Cn3cc(C(=O)NCc4ncn5ccc(Cl)cc45)cn3)nc12 [Example I-125, N-((7-chloroimidazo[1,5-a]pyridin-1-yl)methyl)-1-((6-cyclopropyl-8-(2-methoxyethyl)imidazo[1,2-a]pyridin-2-yl)methyl)-1H-pyrazole-4-carboxamide] | < 1 nM
3 | NC(=O)CCc1cc(C2CC2)cn2cc(Cn3cc(C(=O)NCc4ncn5ccc(Cl)cc45)nn3)nc12 [Example I-183, 1-((8-(3-amino-3-oxopropyl)-6-cyclopropylimidazo[1,2-a]pyridin-2-yl)methyl)-N-((7-chloroimidazo[1,5-a]pyridin-1-yl)methyl)-1H-1,2,3-triazole-4-carboxamide] | < 1 nM
4 | O=C(NCc1ncn2ccc(Cl)c(F)c12)c1cn(Cc2cc3cc(C4CC4)ccn3n2)nn1 [Example I-175, N-((7-chloro-8-fluoroimidazo[1,5-a]pyridin-1-yl)methyl)-1-((5-cyclopropylpyrazolo[1,5-a]pyridin-2-yl)methyl)-1H-1,2,3-triazole-4-carboxamide] | < 1 nM
5 | CC1CC1c1ccc2nc(Cn3cc(C(=O)NCc4ncn5ccc(Cl)cc45)cn3)cn2c1 (centres unmarked) [Example I-43, N-((7-chloroimidazo[1,5-a]pyridin-1-yl)methyl)-1-((6-(2-methylcyclopropyl)imidazo[1,2-a]pyridin-2-yl)methyl)-1H-pyrazole-4-carboxamide] | < 1 nM

Other lines, results leading:

Row | EC50 | SMILES
6 | < 1 nM | CCOC(=O)C1CC1c1cc(C2CC2)cn2cc(Cn3cc(C(=O)NCc4ncn5ccc(Cl)cc45)cn3)nc12 (centres unmarked) [Example I-127, ethyl 2-(2-((4-(((7-chloroimidazo[1,5-a]pyridin-1-yl)methyl)carbamoyl)-1H-pyrazol-1-yl)methyl)-6-cyclopropylimidazo[1,2-a]pyridin-8-yl)cyclopropane-1-carboxylate]
7 | 10 to 100 nM | Cc1ccc2nc(Cn3cc(C(=O)NCc4ncn5ccc(Cl)c(Cl)c45)cn3)cn2c1 [Example I-33, N-((7,8-dichloroimidazo[1,5-a]pyridin-1-yl)methyl)-1-((6-methylimidazo[1,2-a]pyridin-2-yl)methyl)-1H-pyrazole-4-carboxamide]
8 | < 1 nM | O=C(NCc1ncn2ccc(Cl)cc12)c1cn(Cc2cn3c(F)c(C4CC4)ccc3n2)nn1 [Example I-144, N-((7-chloroimidazo[1,5-a]pyridin-1-yl)methyl)-1-((6-cyclopropyl-5-fluoroimidazo[1,2-a]pyridin-2-yl)methyl)-1H-1,2,3-triazole-4-carboxamide]
9 | 1 to 10 nM | O=C(NCc1ncn2ccc(Cl)cc12)c1cc(Cc2cn3cc(C4CC4)ccc3n2)on1 [Example I-176, N-((7-chloroimidazo[1,5-a]pyridin-1-yl)methyl)-5-((6-cyclopropylimidazo[1,2-a]pyridin-2-yl)methyl)isoxazole-3-carboxamide]
10 | < 1 nM | NCc1cc(C2CC2)cn2cc(Cn3cc(C(=O)NCc4ncn5ccc(Cl)c(F)c45)nn3)nc12 [Example I-298, 1-((8-(aminomethyl)-6-cyclopropylimidazo[1,2-a]pyridin-2-yl)methyl)-N-((7-chloro-8-fluoroimidazo[1,5-a]pyridin-1-yl)methyl)-1H-1,2,3-triazole-4-carboxamide]
11 | 10 to 100 nM | CC(C)=Cc1ccn2cc(Cn3cc(C(=O)NCc4ncn5ccc(Cl)cc45)cn3)nc2c1 [Example I-42, N-((7-chloroimidazo[1,5-a]pyridin-1-yl)methyl)-1-((7-(2-methylprop-1-en-1-yl)imidazo[1,2-a]pyridin-2-yl)methyl)-1H-pyrazole-4-carboxamide]
